We go through one compound from patent EP4549575A1 (priority 2023, dated 2025).

The structures appear in SMILES notation.

The subject of one assay is P. viticola. Format: in vivo, Plasmopara viticola (Berk. et Curt.) Berl. and De Toni. The conditions noted are these: grapevine (Vitis vinifera cv. Pinot noir) leaf discs; mean ± standard deviation vs untreated control; concentration not given.
The next assay relates to P. capsici. Format: cell-based, Phytophthora capsici Leonian.
For assay [1], the system named is P. infestans. The format is cell-based. To be noted: 10 mg/l; PAM agar; mycelium plug; 3-4 days; positive control.
Assay [2] has as its system P. infestans. The format is cell-based. To be noted: 10 mg/l; Pea Broth; sporangia; OD620, 72 h; positive control.

As to `C#CCOc1ccc(CCNC(=O)C(OCC#C)c2ccc(Cl)cc2)cc1OC` (stereo not shown) [Mandipropamid, mandipropamid], the “P. viticola (IPP - %)” value with P. viticola is 100 ± 0 (a) %. Besides, the “P. capsici (PIC - %)” value in the assay on P. capsici is recorded as 100 ± 0 (a) %. In addition, the “PPI (%) ± dev. std (Solid medium)” value in the assay with P. infestans [1] was 100.00 ± 0 (a) %. In addition, the “PGI (%) ± dev. std (Liquid medium)” value in the assay with P. infestans [2] is recorded as 100.00 ± 0 (a) %.
